# Source: patent US20200024278A1, “COMPOSITION COMPRISING ANTIBIOTIC COMPOUND AND AN HETEROCYCLIC COMPOUND AND THEIR USE IN PREVENTING OR TREATING BACTERIAL INFECTIONS” (MUTABILIS, priority 2016, published 2020)
# Where a name gives a salt, the structure may show the parent alone.
# Tests used:
# Assay in all cases: MIC, broth microdilution (CLSI), substance alone or ATB combined with compound at 4 or 8 μg/mL
# KPN BAA-1898 = type: cell-based, K. pneumoniae; settings: KPN BAA-1898; for MIC ATB combined with Example: Example @8 μg/ml
# How it was run: (§1)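 Growth inhibition endpoint, read visually after 16-20 h at 35° C in ambient air. Cation-adjusted Mueller-Hinton broth, inoculum 5·10^5 CFU/mL, CLSI M7-A7 protocol.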
# KPN 6299 = type: cell-based, K. pneumoniae; settings: Example @8 μg/ml
# How it was run: as §1
# KPN UFR42 = type: cell-based, K. pneumoniae; settings: KPN UFR42; for MIC ATB combined with Example: Example @8 μg/ml
# How it was run: as §1
# ECO 190317 = type: cell-based, E. coli; settings: ECO 190317; for MIC ATB combined with Example: Example @8 μg/ml
# How it was run: as §1
# ECO UFR39 = type: cell-based, E. coli; settings: ECO UFR39; for MIC ATB combined with Example: Example @8 μg/ml
# How it was run: as §1
# SAU 29213 = type: cell-based, S. aureus; settings: for MIC ATB combined with Example: SAU 29213, Example @8 μg/ml
# How it was run: as §1
# PAE UFR90 = type: cell-based, P. aeruginosa; settings: PAE UFR90; for MIC ATB combined with Example: Example @8 μg/ml
# How it was run: as §1
# PAE 105250 = type: cell-based, P. aeruginosa; settings: PAE 105250; for MIC ATB combined with Example: Example @8 μg/ml
# How it was run: as §1
# PAE UFR48 = type: cell-based, P. aeruginosa; settings: PAE UFR48; for MIC ATB combined with Example: Example @8 μg/ml
# How it was run: as §1
# ECL P99 = type: cell-based, E. cloacae; settings: ECL P99; for MIC ATB combined with Example: Example @8 μg/ml
# How it was run: as §1
# SPN 49619 = type: cell-based, S. pneumoniae; settings: SPN 49619; for MIC ATB combined with Example: Example @8 μg/ml
# How it was run: as §1
# ABA UFR156 = type: cell-based, A. baumannii; settings: Acinetobacter baumannii, substance alone, read-out: MIC
# How it was run: as §1
# ABA UFR152 = type: cell-based, A. baumannii; settings: Acinetobacter baumannii, substance alone, read-out: MIC
# How it was run: as §1
# [1] = Escherichia coli, substance alone, read-out: MIC
# [2] = Pseudomonas aeruginosa, substance alone, read-out: MIC
smiles,measurement,setting,value
"NCCCn1c2c(sc1=O)C1CN(C2)C(=O)N1OS(=O)(=O)O (stereo not shown) [Example 10, [5-(3-aminopropyl)-4,9-dioxo-3-thia-5,8,10-triaza-tricyclo[6.2.1.0^2,6]undec-2(6)-en-10-yl] hydrogen sulfate]",MIC ATB combined with Example,KPN BAA-1898; ATB ATM,<=0.031 μg/mL
same,MIC ATB combined with Example,KPN BAA-1898; ATB FEP,<=0.031 μg/mL
same,MIC ATB combined with Example,KPN BAA-1898; ATB FOS,2 µg/mL
same,MIC ATB combined with Example,KPN BAA-1898; ATB MEM,<=0.031 μg/mL
same,MIC ATB combined with Example,KPN BAA-1898; ATB PIP,<=0.031 μg/mL
same,MIC,"KPN BAA-1898; Klebsiella pneumoniae, BAA1898, substance alone, read-out: MIC",16 µg/mL
same,MIC ATB combined with Example,KPN 6299; ATB ATM,<=0.031 μg/mL
same,MIC ATB combined with Example,KPN 6299; ATB FEP,0.063 µg/mL
same,MIC ATB combined with Example,KPN 6299; ATB FOS,32 µg/mL
same,MIC ATB combined with Example,KPN 6299; ATB MEM,0.063 µg/mL
same,MIC ATB combined with Example,KPN 6299; ATB PIP,1 µg/mL
same,MIC ATB combined with Example,KPN UFR42; ATB ATM,0.063 µg/mL
same,MIC ATB combined with Example,KPN UFR42; ATB FEP,<=0.031 μg/mL
same,MIC ATB combined with Example,KPN UFR42; ATB FOS,8 µg/mL
same,MIC ATB combined with Example,KPN UFR42; ATB MEM,>32 µg/mL
same,MIC ATB combined with Example,KPN UFR42; ATB PIP,>32 µg/mL
same,MIC,"KPN UFR42; Klebsiella pneumoniae, substance alone, read-out: MIC",> 32 µg/mL
same,MIC ATB combined with Example,ECO 190317; ATB ATM,<0.031 µg/mL
same,MIC ATB combined with Example,ECO 190317; ATB FEP,<0.031 µg/mL
same,MIC ATB combined with Example,ECO 190317; ATB FOS,<0.125 µg/mL
same,MIC ATB combined with Example,ECO 190317; ATB MEM,<0.031 µg/mL
same,MIC ATB combined with Example,ECO 190317; ATB PIP,<0.031 µg/mL
same,MIC,ECO 190317; [1],0.5 µg/mL
same,MIC ATB combined with Example,ECO UFR39; ATB ATM,<=0.031 μg/mL
same,MIC ATB combined with Example,ECO UFR39; ATB FEP,<=0.031 μg/mL
same,MIC ATB combined with Example,ECO UFR39; ATB FOS,<0.125 µg/mL
same,MIC ATB combined with Example,ECO UFR39; ATB MEM,<0.031 µg/mL
same,MIC ATB combined with Example,ECO UFR39; ATB PIP,<0.031 µg/mL
same,MIC,ECO UFR39; [1],2 µg/mL
same,MIC ATB combined with Example,SAU 29213; ATB ATM,>32 µg/mL
same,MIC ATB combined with Example,SAU 29213; ATB FEP,0.5 µg/mL
same,MIC ATB combined with Example,SAU 29213; ATB FOS,<=0.125 μg/mL
same,MIC ATB combined with Example,SAU 29213; ATB MEM,<=0.031 μg/mL
same,MIC ATB combined with Example,SAU 29213; ATB PIP,1 µg/mL
same,MIC,"SAU 29213; Staphylococcus aureus, substance alone, SAU 29213 (MSSA 29213), read-out: MIC",32 µg/mL
same,MIC ATB combined with Example,PAE UFR90; ATB ATM,<0.031 µg/mL
same,MIC ATB combined with Example,PAE UFR90; ATB FEP,<0.031 µg/mL
same,MIC ATB combined with Example,PAE UFR90; ATB FOS,<0.125 µg/mL
same,MIC ATB combined with Example,PAE UFR90; ATB MEM,<0.031 µg/mL
same,MIC ATB combined with Example,PAE UFR90; ATB PIP,<0.031 µg/mL
same,MIC,PAE UFR90; [2],4 µg/mL
same,MIC ATB combined with Example,PAE 105250; ATB ATM,<0.031 µg/mL
same,MIC ATB combined with Example,PAE 105250; ATB FEP,<0.031 µg/mL
same,MIC ATB combined with Example,PAE 105250; ATB FOS,<0.125 µg/mL
same,MIC ATB combined with Example,PAE 105250; ATB MEM,<0.031 µg/mL
same,MIC ATB combined with Example,PAE 105250; ATB PIP,<0.031 µg/mL
same,MIC,PAE 105250; [2],4 µg/mL
same,MIC ATB combined with Example,PAE UFR48; ATB ATM,<0.031 µg/mL
same,MIC ATB combined with Example,PAE UFR48; ATB FEP,<0.031 µg/mL
same,MIC ATB combined with Example,PAE UFR48; ATB FOS,<0.125 µg/mL
same,MIC ATB combined with Example,PAE UFR48; ATB MEM,<0.031 µg/mL
same,MIC ATB combined with Example,PAE UFR48; ATB PIP,<0.031 µg/mL
same,MIC,PAE UFR48; [2],4 µg/mL
same,MIC ATB combined with Example,ECL P99; ATB ATM,<0.031 µg/mL
same,MIC ATB combined with Example,ECL P99; ATB FEP,<0.031 µg/mL
same,MIC ATB combined with Example,ECL P99; ATB FOS,<0.125 µg/mL
same,MIC ATB combined with Example,ECL P99; ATB MEM,<0.031 µg/mL
same,MIC ATB combined with Example,ECL P99; ATB PIP,<0.031 µg/mL
same,MIC,"ECL P99; Enterobacter cloacae, substance alone, read-out: MIC",2 µg/mL
same,MIC ATB combined with Example,SPN 49619; ATB ATM,<0.031 µg/mL
same,MIC ATB combined with Example,SPN 49619; ATB FEP,<0.031 µg/mL
same,MIC ATB combined with Example,SPN 49619; ATB FOS,<0.125 µg/mL
same,MIC ATB combined with Example,SPN 49619; ATB MEM,<0.031 µg/mL
same,MIC ATB combined with Example,SPN 49619; ATB PIP,<0.031 µg/mL
same,MIC,"SPN 49619; Streptococcus pneumoniae, substance alone, read-out: MIC",1 µg/mL
same,MIC,ABA UFR156,> 32 µg/mL
same,MIC,ABA UFR152,32 µg/mL
